Patent US20050192349A1, “Isolation of the peroxisome proliferation-activated receptor-gamma (PPARgamma) ligand and methods of use thereof” (Beth Israel Deaconess Medical Center, Inc., priority 2002, published 2005)

Tests used:
PPARγ = molecular target: T1, PPARγ (Homo sapiens, UniProt P37231); settings: cited from earlier work
T1 sequence (P37231 1-505): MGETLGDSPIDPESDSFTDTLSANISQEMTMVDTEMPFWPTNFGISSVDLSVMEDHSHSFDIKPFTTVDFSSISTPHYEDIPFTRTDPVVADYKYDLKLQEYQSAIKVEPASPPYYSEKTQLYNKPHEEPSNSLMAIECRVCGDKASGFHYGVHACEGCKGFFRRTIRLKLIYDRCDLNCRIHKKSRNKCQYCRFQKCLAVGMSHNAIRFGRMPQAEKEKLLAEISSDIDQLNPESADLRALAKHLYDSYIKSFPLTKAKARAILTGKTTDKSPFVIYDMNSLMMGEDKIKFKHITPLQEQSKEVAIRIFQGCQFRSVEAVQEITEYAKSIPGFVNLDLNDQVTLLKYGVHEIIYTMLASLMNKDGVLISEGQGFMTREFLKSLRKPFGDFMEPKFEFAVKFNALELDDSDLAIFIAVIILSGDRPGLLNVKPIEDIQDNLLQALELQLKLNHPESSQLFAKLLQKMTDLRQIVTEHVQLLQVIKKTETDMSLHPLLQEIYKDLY

3T3-L1 = settings: cited from earlier work
PPARγ1 = experiment: Full-length PPARγ1 / p3DR1-luc luciferase reporter in CV-1 cells stimulated with conditioned media; assay type: cell-based; settings: CV-1, pCMV-PPARγ and p3DR1-luc, with or without NBD1-VP16; various concentrations
Protocol: CV-1 cells were transfected with an expression vector encoding full-length PPARγ1 (pCMV-PPARγ) and a reporter plasmid p3DR1-1uc. p3DR1-luc contains a triple copy of PPARγ response element, Direct Repeat 1, linked to the luciferase gene. The cells were transfected with the reporter with or without NBD1-VP16 expression vector. The transfected cells were incubated with or without conditioned media in the absence or presence of various concentrations of PD068235. The cells were washed and lysed as described above for the β-gal assay, except that 50 μl of the lysate were mixed with 100 μl assay buffer and measured for 15 sec. in the Luminometer. Assay buffer consisted of 25 mM glycylglycine, 15 mM MgSO4, 4 mM EGTA, 1 mM DTT, 15 mM KH2PO4, 6 mM ATP and 100 μl of a 0.225 mg/ml luciferin stock solution.

[1] = system: PPARγ ligand production in 5B2 cells; experiment: Effect of COX and LOX inhibitors on PPARγ ligand production in differentiating 5B2 cells (β-gal activity); assay type: cell-based, murine; settings: day 2
From the text: To test whether PPARγ ligand production was dependent upon cyclooxygenase (COX) or lipooxygenase (LOX), which would be expected if the ligand were a prostaglandin, the effect of COX and LOX inhibitors on PPARγ ligand production during 3T3-L1 differentiation into adipocytes was examined by measuring the β-gal activity in the stable cell line, 5B2.
5B2 cells were stimulated to differentiation into adipocytes as described above. The media containing the mixture of insulin, DEX and MIX is called d0 media on FIG. 10. In the experimental samples, d0 media contained the indicated COX or LOX inhibitor. The fold induction of β-gal activity of day 2 cells was compared to cells of day 2 stimulated in the absence of hormones (g media).

[2] = molecular target: T2, PPARγ-LBD fused to GAL4-DBD (Mus musculus, UniProt P37238); experiment: β-gal activity in 3T3-L1 cell lines 5B2 and 5B3 stably transfected with the feedback monitoring system; assay type: cell-based, murine; set-up: expressed in transfected cells
T2 sequence (P37238 238-503 limits assumed): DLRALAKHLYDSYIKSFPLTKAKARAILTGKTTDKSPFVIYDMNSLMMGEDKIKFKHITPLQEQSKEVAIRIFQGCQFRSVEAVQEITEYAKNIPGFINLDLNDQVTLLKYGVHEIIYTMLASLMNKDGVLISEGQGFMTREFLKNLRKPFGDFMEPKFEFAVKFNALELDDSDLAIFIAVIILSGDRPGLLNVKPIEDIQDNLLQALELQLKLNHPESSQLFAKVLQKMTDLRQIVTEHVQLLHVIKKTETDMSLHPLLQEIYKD

[3] = molecular target: T2, PPARγ-LBD fused to GAL4-DBD; experiment: PPARγ ligand monitoring system (Gal4-PPARγ-LBD / pUH-gal β-gal reporter) in transfected CV-1 cells; settings: 3T3-L1 stimulated 2 days with combinations of Ins, Mix and Dex
Protocol: The effector and reporter constructs were transfected into either CV-1 cells (monkey kidney cells) or 3T3-L1 cells (murine fibroblast cells capable of being differentiated into adipocytes). Cells were grown according to standard protocols for these cells. For example, 3T3-L1 cells were grown and maintained as fibroblasts in DMEM/high glucose, containing 10% calf serum in a 10% CO2 humidified environment at 37° C. The cells were maintained at a subconfluent level so as to not prematurely arrest cell growth and induce differentiation. The cells were typically split 1:5 or 1:3 every 3 to 4 days. Cells were transfected using Lipofectamine™ 2000 Reagent (Life Technologies™, Carlsbad, Calif.) according to the manufacturers instructions. Cells were plated in 24 well dishes for the assay.
The washed cells were lysed with 200 μl lysis buffer (25 mM glycylglycine, 15 mM MgSO4, 4 mM EGTA, 1 mM DTT, 1% Triton) per well. […] The β-gal activity was measured for 10 sec. in a Luminometer (LB9507, EG&G, Bad Wildbad, Germany).
CV-1 cells were transfected as described above with pUH-G4-PPARγ and pUH-gal, with or without nuclear receptor interaction domain NBD1 of SRC-1 fused with VP16 or inactivated VP16. […] The treated, transfected cells were harvested and β-gal activity measured 48 hrs post-transfection.

[4] = cited from earlier work; for LDL levels: human, in vivo

## CCCCC/C=C\C/C=C\CCCCCCCC(=O)O [linoleic acid]
PPARγ
  direct binding to PPARγ: bind directly to PPARγ

## C=CCn1cc([N+](=O)[O-])sc1=NC(=O)C(C)(C)C [PD068235]
3T3-L1
  3T3-L1 adipocyte differentiation: prevent 3T3-L1 adipocyte differentiation
PPARγ1
  inhibition of CM-stimulated PPARγ transcriptional activity (luciferase): dose-dependent inhibition of CM-stimulated PPARγ transcriptional activity

## CCCCC/C=C/C=C1/C(=O)C=C[C@@H]1C/C=C\CCCC(=O)O [15-deoxyΔ^12,14PG J2]
PPARγ; read-out: affinity (dissociation constant) of PPARγ for the ligand
  Kd: 2 to 50 µM

## CC(Cc1ccc(O)c(O)c1)C(C)Cc1ccc(O)c(O)c1 (stereo not drawn) [NDGA]
[1]; 10 μM in d0 media
  effect on β-gal activity produced by stimulated 5B2 cells: no significant effect

## COc1ccc2c(c1)c(CC(=O)O)c(C)n2C(=O)c1ccc(Cl)cc1 [Indomethacin]
[1]; 10 μM in d0 media
  effect on β-gal activity produced by stimulated 5B2 cells: no significant effect

## O=c1cc(-c2ccccc2)oc2cc(O)c(O)c(O)c12 [Baicalein]
[1]; 5 μM in d0 media
  effect on β-gal activity produced by stimulated 5B2 cells: no significant effect

## CC(C)c1ccc2c(c1)c(SC(C)(C)C)c(CC(C)(C)C(=O)O)n2Cc1ccc(Cl)cc1 [MK866]
[1]; 5 μM in d0 media
  effect on β-gal activity produced by stimulated 5B2 cells: no significant effect

## CCCCCC(O)c1ccc(OCc2ccc3ccccc3n2)cc1 (single isomer, unassigned) [REV 5901-para-isomer]
[1]; 5 μM in d0 media
  effect on β-gal activity produced by stimulated 5B2 cells: no significant effect

## CC(C)Cn1c(=O)n(C)c(=O)c2[nH]cnc21 [Mix, methyl iso-butyl xanthine]
[2]; 5B2 and 5B3, combinations of Ins, 0.5 mM Mix, Dex, day 2
  induction of β-gal activity by components of the adipogenic mixture: dependent on the stimulation by Mix
[2]; 5B2 cells
  ligand production (β-gal activity) on stimulation with cAMP elevating compounds: induced the ligand production of differentiating pre-adipocytes by increasing the intracellular cAMP
[3]
  ligand production of 3T3-L1 cells (β-gal activity of CV-1 cells incubated with conditioned media): dependent on stimulation by Mix

## CN(CCOc1ccc(CC2SC(=O)NC2=O)cc1)c1ccccn1 (stereo not drawn) [rosiglitazone]
[4]
  LDL levels: associated with a rise in LDL levels

## Cc1c(C)c2c(c(C)c1O)CCC(C)(COc1ccc(CC3SC(=O)NC3=O)cc1)O2 (stereo not drawn) [Troglitazone]
[4]
  LDL levels: associated with a rise in LDL levels
[4]; patients
  liver toxicity: liver toxicity in some patients
